For the assay, the system named is Human Cav2.3 channel. In words: Human Cav2.3 channel calcium-influx assay. It counts as cell-based. The settings on record: Fluo8 fluorescence, HEK-293 T-Rex/Kir2.1/Cav2.3e cells, without pluronic acid. As for the experimental part: HEK-293 T-Rex cells were transfected with pcDNA3.1-Kir2.1 to generate a stable cell line. After antibiotic selection, the obtained stable pools were analysed using FLIPR^TETRA (membrane potential assay), and a limiting dilution was performed and a HEK-293 T-Rex/Kir2.1 clone was selected. The clone was transfected with pcDNA3.1-Cav2.3e and pBud-Cav-β4-α2δ1 to generate a stable cell line where the Cav2.3e expression is inducible. After antibiotic selection, functional clone pool analysis and two successive limiting dilutions, the final clone underwent a qPCR analysis and a biophysical and pharmacological validation using patch-clamp.
A compound plate, containing 10 test compounds in eight-points dose response with n=4, was prepared. Test compounds dose response curves were prepared in automated fashion in 100% DMSO at CyBio Felix and starting from a stock solution in 100% DMSO; a defined volume was serially moved into destination wells pre-filled with the desired DMSO volume; stock solution concentration volumes were dependent on the final compounds concentrations to be tested and the final DMSO content used in the assay. For the assay test compounds dose response curves ranged from 30 μM and half log dilution with 0.3% final DMSO. In order to obtain the 8-points dose response curve all the concentrations were created by starting from a 10 mM DMSO stock solution and then moving 9.5 μL into a destination well pre-filled with 20.5 μL of 100% DMSO and repeating this step seven times. This initial step was done into 96 MTP plates, 10 compounds/plate. One 384 MTP was then reformatted to contain all the 10 compounds at 8 concentrations, quadruplicate data points. This so obtained 384 MTP compound plate served as source plate in a “mother to child” process with a CyBi®-Well dispenser in which 0.7 μL of compounds were moved into a destination plate pre-filled with 57.6 μL of Tyrode's buffer 0 mM K+, thus obtaining 4× concentrated compounds solution. In columns 1-2 and 23-24 the control wells were added. Both “source” compound plate and “destination” compound plate were barcoded and a relationship between the two plates was thus generated.
The day before the experiment, cells were detached by gentle wash with DPBS, followed by 5 min incubation at 37° C. with Trypsin solution. Detached cells were diluted with OptiMEM+Doxycycline at 0.2 μg/mL, counted and plated in Poly-D-Lysine coated black/clear bottom (15.000 c/well in 20 μl/well) by the use of a MATRIX WellMate dispenser. Plates were placed into a humidified incubator at 37° C. with 5% CO2 until the experimental day. 24 h after seeding 10 μL/well of 1.5× Fluo8 NW dye solution prepared in Tyrode's buffer 0 mM K* were added on top of the seeding medium. Cell plates were incubated for 40-60 min at RT in the dark. We then Injected off-line 10 μL/well of test compounds and controls 4× concentrated in Tyrode's Buffer 0 mM K+ with the CyBi®-Well instrument. Cell plates were incubated 3 minutes at RT. Finally, we injected 20 μL/well of 3× concentrated activator solution (K20-Na130-Ca2 buffer: 20 mM KCl, 130 mM NaCl, 2 mM CaCl2, 10 mM HEPES, 10 mM Glucose, final concentrations, prepared starting from “K0-Na150-Ca2” and “K150-Na0-Ca2” buffers) at FDSS7000EX instrument and read emitted fluorescence for 130 seconds.
Data analysis was performed with Genedata Screener® software and reported compounds activity as % effect in relation to the normalization standards. The Kinetic Response Value (KRV) is calculated as follows:
KRV=Maximal fluorescence recorded from second 5 to second 130 minus baseline fluorescence, computed as average from second 1 to second 2, of the kinetic trace. The KRV was normalized versus Neutral Controls and Inhibitor Controls in order to obtain the Activity[%] for each well. […] Therefore, the compound activity values were scaled (based on the two references) to a common range (two-point normalization). […]
Take `CCN(C(c1ccc(F)cc1)C(F)(F)F)S(=O)(=O)c1ccc2c(c1)COCC2` (stereo not shown) [Example 29, N-ethyl-N-(2,2,2-trifluoro-1-(4-fluorophenyl)ethyl)isochromane-7-sulfonamide]: the “Cav2.3 (pIC50)” value turned out to be 6.18.

For the compound `CCN(C(c1ccc(F)cc1)C(F)(F)F)S(=O)(=O)c1cccc(C#N)n1` (stereo not shown) [Example 30, 6-cyano-N-ethyl-N-(2,2,2-trifluoro-1-(4-fluorophenyl)ethyl)pyridine-2-sulfonamide], the “Cav2.3 (pIC50)” value amounted to 6.62.

For `CCN(C(c1ccc(F)cc1)C(F)(F)F)S(=O)(=O)c1cc(C)c(Cl)s1` (stereo not shown) [Example 31, 5-chloro-N-ethyl-4-methyl-N-(2,2,2-trifluoro-1-(4-fluorophenyl)ethyl)thiophene-2-sulfonamide], the “Cav2.3 (pIC50)” value amounted to 6.43.

For `CCN([C@H](c1ccc(F)cc1)C(F)(F)F)S(=O)(=O)c1cccc(C)n1` [Example 33, (R)—N-ethyl-6-methyl-N-(2,2,2-trifluoro-1-(4-fluorophenyl)ethyl)pyridine-2-sulfonamide], the “Cav2.3 (pIC50)” value is reported as 6.30.

As to `CCN([C@@H](c1ccc(F)cc1)C(F)(F)F)S(=O)(=O)c1cncc(C#N)c1` [Example 34, (S)-5-cyano-N-ethyl-N-(2,2,2-trifluoro-1-(4-fluorophenyl)ethyl)pyridine-3-sulfonamide], the “Cav2.3 (pIC50)” value is recorded as 6.20.

Consider `CCN(C(c1ccc(F)cc1)C(F)(F)F)S(=O)(=O)c1ccc2c(c1)COC2` (stereo not shown) [Example 36, N-ethyl-N-(2,2,2-trifluoro-1-(4-fluorophenyl)ethyl)-1,3-dihydroisobenzofuran-5-sulfonamide], for which the “Cav2.3 (pIC50)” value was 6.58.

With `CCN([C@@H](c1ccc(F)cc1)C(F)(F)F)S(=O)(=O)c1ccc2c(c1)COC2` [Example 37, (S)—N-ethyl-N-(2,2,2-trifluoro-1-(4-fluorophenyl)ethyl)-1,3-dihydroisobenzofuran-5-sulfonamide], the “Cav2.3 (pIC50)” value stood at 4.87.

Consider `CCN([C@H](c1ccc(F)cc1)C(F)(F)F)S(=O)(=O)c1ccc2c(c1)COC2` [Example 38, (R)—N-ethyl-N-(2,2,2-trifluoro-1-(4-fluorophenyl)ethyl)-1,3-dihydroisobenzofuran-5-sulfonamide], for which the “Cav2.3 (pIC50)” value amounted to 6.91.

As to `CCN(C(c1ccc(F)cc1)C(F)(F)F)S(=O)(=O)c1ccc2c(c1)OCC2` (stereo not shown) [Example 39, N-ethyl-N-(2,2,2-trifluoro-1-(4-fluorophenyl)ethyl)-2,3-dihydrobenzofuran-6-sulfonamide], the “Cav2.3 (pIC50)” value came out at 5.82.

As for `CCN([C@H](c1ccc(F)cc1)C(F)(F)F)S(=O)(=O)c1ccc2c(c1)OCC2` [Example 40, (R)—N-ethyl-N-(2,2,2-trifluoro-1-(4-fluorophenyl)ethyl)-2,3-dihydrobenzofuran-6-sulfonamide], the “Cav2.3 (pIC50)” value was 5.62.

On to `CCN([C@@H](c1ccc(F)cc1)C(F)(F)F)S(=O)(=O)c1ccc2c(c1)OCC2` [Example 41, (S)—N-ethyl-N-(2,2,2-trifluoro-1-(4-fluorophenyl)ethyl)-2,3-dihydrobenzofuran-6-sulfonamide], for which the “Cav2.3 (pIC50)” value stood at 4.72.

As for `CCN(C(c1ccc(F)cc1)C(F)(F)F)S(=O)(=O)c1csc(C#N)c1` (stereo not shown) [Example 42, 5-Cyano-N-ethyl-N-(2,2,2-trifluoro-1-(4-fluorophenyl)ethyl)thiophene-3-sulfonamide], the “Cav2.3 (pIC50)” value stood at 6.90.

With `CCN(C(c1ccc(F)cc1)C(F)(F)F)S(=O)(=O)c1sc(C#N)cc1C` (stereo not shown) [Example 45, 5-Cyano-N-ethyl-3-methyl-N-(2,2,2-trifluoro-1-(4-fluorophenyl)ethyl)thiophene-2-sulfonamide], the “Cav2.3 (pIC50)” value is given as 6.07.

Consider `CCN(C(c1ccc(F)cc1)C(F)(F)F)S(=O)(=O)c1cnc(C)c(C#N)c1` (stereo not shown) [Example 55, 5-cyano-N-ethyl-6-methyl-N-(2,2,2-trifluoro-1-(4-fluorophenyl)ethyl)pyridine-3-sulfonamide], for which the “Cav2.3 (pIC50)” value is 6.33.

Turning to `CCN(C(c1ccc(F)cc1)C(F)(F)F)S(=O)(=O)C1CCCOC1` (stereo not shown) [Example 56, N-ethyl-N-(2,2,2-trifluoro-1-(4-fluorophenyl)ethyl)tetrahydro-2H-pyran-3-sulfonamide], the “Cav2.3 (pIC50)” value came to 6.92.

With `CCN(C(c1ccc(F)cc1)C(F)(F)F)S(=O)(=O)c1cncnc1` (stereo not shown) [Example 57, N-ethyl-N-(2,2,2-trifluoro-1-(4-fluorophenyl)ethyl)pyrimidine-5-sulfonamide], the “Cav2.3 (pIC50)” value turned out to be 6.96.

`CN(C(c1ccc(F)cc1)C(F)(F)F)S(=O)(=O)c1cncnc1` (stereo not shown) [Example 58, N-methyl-N-(2,2,2-trifluoro-1-(4-fluorophenyl)ethyl)pyrimidine-5-sulfonamide]: the “Cav2.3 (pIC50)” value came to 6.35.

For the compound `CCN([C@@H](c1ccc(F)cc1)C(F)(F)F)S(=O)(=O)c1cncnc1` [Example 59, (S)—N-ethyl-N-(2,2,2-trifluoro-1-(4-fluorophenyl)ethyl)pyrimidine-5-sulfonamide], the “Cav2.3 (pIC50)” value worked out at 5.21.

With `CCN(C(c1ccc(F)cc1)C(F)(F)F)S(=O)(=O)c1cncnc1` [Example 60, (R)—N-ethyl-N-(2,2,2-trifluoro-1-(4-fluorophenyl)ethyl)pyrimidine-5-sulfonamide], the “Cav2.3 (pIC50)” value worked out at 7.14.

For `CCN(C(c1ccc(F)cc1)C(F)(F)F)S(=O)(=O)C1CCOCC1` (stereo not shown) [Example 61, N-ethyl-N-(2,2,2-trifluoro-1-(4-fluorophenyl)ethyl)tetrahydro-2H-pyran-4-sulfonamide], the “Cav2.3 (pIC50)” value was determined as 7.01.

In the case of `CCN([C@@H](c1ccc(F)cc1)C(F)(F)F)S(=O)(=O)C1CCOCC1` [Example 62, (S)—N-ethyl-N-(2,2,2-trifluoro-1-(4-fluorophenyl)ethyl)tetrahydro-2H-pyran-4-sulfonamide], the “Cav2.3 (pIC50)” value is recorded as 5.20.

For the compound `CCN(C(c1cccc(OC)c1)C(F)(F)F)S(=O)(=O)c1cncc(C#N)c1` (stereo not shown) [Example 71, 5-Cyano-N-ethyl-N-(2,2,2-trifluoro-1-(3-methoxyphenyl)ethyl)pyridine-3-sulfonamide], the “Cav2.3 (pIC50)” value is on record as 6.80.

On to `CCN([C@H](c1cccc(OC)c1)C(F)(F)F)S(=O)(=O)c1cncc(C#N)c1` [Example 72, (R)-5-Cyano-N-ethyl-N-(2,2,2-trifluoro-1-(3-methoxyphenyl)ethyl)pyridine-3-sulfonamide], for which the “Cav2.3 (pIC50)” value amounted to 6.20.

Turning to `CCN([C@@H](c1cccc(OC)c1)C(F)(F)F)S(=O)(=O)c1cncc(C#N)c1` [Example 73, (S)-5-Cyano-N-ethyl-N-(2,2,2-trifluoro-1-(3-methoxyphenyl)ethyl)pyridine-3-sulfonamide], the “Cav2.3 (pIC50)” value was 5.50.

Take `Cc1ncc(S(=O)(=O)N(C)C(c2ccc(F)cc2)C(F)(F)F)cn1` (stereo not shown) [Example 74, N,2-dimethyl-N-(2,2,2-trifluoro-1-(4-fluorophenyl)ethyl)pyrimidine-5-sulfonamide]: the “Cav2.3 (pIC50)” value came out at 5.83.

Regarding `CCN(C(c1ccc(F)cc1)C(F)(F)F)S(=O)(=O)c1cnc(C)nc1` (stereo not shown) [Example 75, N-ethyl-2-methyl-N-(2,2,2-trifluoro-1-(4-fluorophenyl)ethyl)pyrimidine-5-sulfonamide], the “Cav2.3 (pIC50)” value turned out to be 5.94.

On to `CCN([C@@H](c1ccc(F)cc1)C(F)(F)F)S(=O)(=O)c1cnc(C)nc1` [Example 76, (S)—N-ethyl-2-methyl-N-(2,2,2-trifluoro-1-(4-fluorophenyl)ethyl)pyrimidine-5-sulfonamide], for which the “Cav2.3 (pIC50)” value is listed as 5.31.

Turning to `Cc1ncc(S(=O)(=O)N(C)[C@H](c2ccc(F)cc2)C(F)(F)F)cn1` [Example 78, (R)—N,2-dimethyl-N-(2,2,2-trifluoro-1-(4-fluorophenyl)ethyl)pyrimidine-5-sulfonamide], the “Cav2.3 (pIC50)” value came to 5.69.
